Two compounds from patent US20190151315A1, “Drug For Preventing Or Treating Lactic Acidosis” (KEIO UNIVERSITY, priority 2016, published 2019) can be followed below.

Structures are written as SMILES.

Assay type in all cases: in vivo, mouse (C57BL/6)
In assay [1] the test system is MALA-complicated CKD model mice. In words: Survival analysis in MALA-complicated chronic kidney disease (CKD) model mice, Compound A (Test Example 2). The note with it: for survival rate as compared to vehicle alone: 10 mg/kg oral. An excerpt: (§1) All mice used in Examples were 7- to 13-week-old wild-type C57BL/6 male mice obtained from CLEA Japan, Inc. The mice were fed ad libitum on a 12-hour light/12-hour dark cycle in a specific pathogen-free facility.
(§2) In statistical analysis in Examples, power calculation for determining a sample size was not performed. Mice that died of lactic acidosis before treatment with a vehicle or Compound A were excluded from mice to be analyzed. For a comparison of normally distributed data between groups, analysis was performed using unpaired Student's t-test. A difference in survival rate was analyzed by log-rank (Mantel-Cox) test through use of GraphPad Prism software.
(§3) 7-Week-old wild-type C57BL/6 male mice were fed ad libitum with a standard or 0.2% adenine feed for 6 weeks. The population fed with the 0.2% adenine feed was used as CKD model mice.
(§4) Further, the CKD model mice were administered with 0.5 mg/g body weight of metformin on day 1 to produce a MALA-complicated CKD mouse model. After 4 hours from the metformin administration, a whole blood sample (5 μl) was collected from the tail vein, and a blood lactate level was measured using Lactate Pro Test Meter and Lactate Pro Test Strip (Cycle Classic Imports). […] Kaplan-Meier survival analysis was performed for those mice.

In another assay the test system is MALA model mice. In words: Survival analysis in metformin-associated lactic acidosis (MALA) model mice (Test Example 1). Conditions: for survival rate as compared to vehicle alone: 30 mg/kg oral.
From the text: as §1, §2
In the morning and evening of day 1, and the morning of day 2, 0.25 mg/g body weight of metformin dissolved in distilled water was orally administered to 8-week-old wild-type C57BL/6 male mice to produce MALA model mice. Immediately after the metformin administration to the model mice on day 2, a vehicle (0.5% methyl cellulose; 64625; Sigma-Aldrich) or 30 mg/kg body weight of Compound A (produced in Example 1) was orally administered. After 4 hours from the oral administration, the model mice were administered with 0.4 mg/g body weight of lactic acid dissolved in 0.9% NaCl by intraperitoneal injection. Kaplan-Meier survival analysis was performed for those mice.

Assay [2] relates to MALA-complicated CKD model mice. In words: Survival analysis in MALA-complicated chronic kidney disease (CKD) model mice, Compound B (Test Example 3). The note with it: for survival rate as compared to vehicle alone: 30 mg/kg oral.
From the text: as §1, §2, §3, §4

On to `Cc1nc(CC2CCN(c3ccc(-c4ccc(CO)cc4)cc3)CC2)nc(C(=O)NCC(=O)O)c1O` [Compound A, ({[5-hydroxy-2-({1-[4′-(hydroxymethyl)biphenyl-4-yl]piperidin-4-yl}methyl)-6-methylpyrimidin-4-yl]carbonyl}amino)acetic acid], for which the “survival rate as compared to vehicle alone (Kaplan-Meier, FIG. 2)” value in assay [1] (10 mg/kg body weight oral, single, mice with blood lactate more than 8 mM after metformin 0.5 mg/g) is “significantly high survival rate”. Moreover, the “survival rate as compared to vehicle alone” value in assay [1] (after 24 hours) is given as “about 2.9 fold”; in assay [1] (after 48 hours) it was “about 5.8 fold”; in assay [1] (after 72 hours), “about 5.8 fold”; in the assay on MALA model mice (after 24 hours) it was “about 1.8 fold”; with MALA model mice (after 48 hours), “about 2.8 fold”; with MALA model mice (after 72 hours), “about 2.6 fold”. Besides, the “survival rate as compared to vehicle alone” value in the assay on MALA model mice (after 96 hours) is “about 2.4 fold”; in the assay on MALA model mice (after 120 hours) it was “about 2.6 fold”. Also, the “survival rate as compared to vehicle alone (Kaplan-Meier, FIG. 1)” value in the assay with MALA model mice (30 mg/kg body weight oral, single, metformin 0.25 mg/g x3, lactic acid 0.4 mg/g i.p. after 4 hours) was “significantly high survival rate”.

As to `Cc1nc(CC2CCN(c3ccc(-c4ccc(C[C@H](C)O)cc4)cc3)CC2)nc(C(=O)NCC(=O)O)c1O` [Compound B, [({5-hydroxy-2-[(1-{4′-[(2S)-2-hydroxypropyl]biphenyl-4-yl}piperidin-4-yl)methyl]-6-methylpyrimidin-4-yl}carbonyl)amino]acetic acid], the “survival rate as compared to vehicle alone (Kaplan-Meier, FIG. 3)” value in assay [2] (30 mg/kg body weight oral, single, mice with blood lactate more than 8 mM after metformin 0.5 mg/g) is “significantly high survival rate”. For the same compound, the results for the “survival rate as compared to vehicle alone” value in assay [2] (after 24 hours), in assay [2] (after 48 hours) and in assay [2] (after 72 hours) were “about 1.7 fold”, “about 2.0 fold” and “about 2.0 fold”, respectively.
